Here are results for 2 molecules from article PMC2777267, “Crystal Structures of Wzb of Escherichia coli and CpsB of Streptococcus pneumoniae, Representatives of Two Families of Tyrosine Phosphatases that Regulate Capsule Assembly” (Journal of Molecular Biology, 2009).

Molecules are shown by their SMILES.

Assay [1] addresses T1, Cps4B (Streptococcus pneumoniae, UniProt Q9AHD4). Kind of assay: absorbance at […] nm. It is filed as biochemical. Also noted: gene cpsB; recombinant, produced as described earlier; PHP-fold metal-dependent phosphatase with three active-site metals; 1 molecule per asymmetric unit. The settings on record: 25 mM Tris-Cl pH 8.0, 50 mM NaCl, 2.5 mM pNPP, room temperature; 0.5 mM Cu2+, Co2+ or Mn2+ added.

Assay [2] concerns the target T1, Cps4B. Details: gene cpsB. The settings on record: active site, bound to three metals, Arg139 and Arg206; soak up to 50 mM phosphate.

T1 sequence (Q9AHD4 whole entry, looked up): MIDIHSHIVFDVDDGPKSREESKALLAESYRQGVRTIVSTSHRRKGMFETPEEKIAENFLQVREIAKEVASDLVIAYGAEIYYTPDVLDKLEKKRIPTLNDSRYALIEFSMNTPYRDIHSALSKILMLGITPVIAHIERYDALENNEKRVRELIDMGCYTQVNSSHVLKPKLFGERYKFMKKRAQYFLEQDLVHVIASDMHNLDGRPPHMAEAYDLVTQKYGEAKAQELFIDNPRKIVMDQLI

Take `O=[N+]([O-])c1ccc(OP(=O)(O)O)cc1` [para-nitrophenylphosphate]: the “absorbance at 405 nm” value at Cps4B [1] is on record as “it is a relatively poor catalyst with artificial substrate para-nitrophenylphosphate (pNPP)”. For `O=P(O)(O)O` [phosphate], the “X-ray crystal structure, 2.2 A, phosphate soak” value at Cps4B [2] is “The phosphate is tightly bound to the active site by a multitude of interactions”.
